± gives the expanded uncertainty stated by the source.
Experiments:
[1] = Liquid; for mass density: 293.15 K, 101.33 kPa, Vibrating tube method
[2] = refractive index (Na D-line) (dimensionless); conditions: 293.15 K; 101.33 kPa; Liquid; Abbe refractometer

CCCCCCCC [octane]
mass density [1]: 702.44 ± 0.18 kg/m3 | vapor or sublimation pressure ([1]; 348.15 K): 19.31 ± 0.37 kPa | vapor or sublimation pressure ([1]; 356.74 K): 26.66 ± 0.3 kPa | vapor or sublimation pressure ([1]; 363.15 K): 33.52 ± 0.42 kPa | vapor or sublimation pressure ([1]; 376.95 K): 53.33 ± 0.36 kPa | vapor or sublimation pressure ([1]; 383.15 K): 64.25 ± 0.52 kPa | vapor or sublimation pressure ([1]; 398.79 K): 101.3 ± 0.5 kPa | refractive index [2]: 1.3973 ± 0.0003

CC1=CCC2CC1C2(C)C (stereo unspecified) [2-pinene]
mass density [1]: 858.06 ± 0.16 kg/m3 | vapor or sublimation pressure ([1]; 348.15 K): 7.35 ± 0.33 kPa | vapor or sublimation pressure ([1]; 363.15 K): 13.32 ± 0.35 kPa | vapor or sublimation pressure ([1]; 382.79 K): 26.66 ± 0.34 kPa | vapor or sublimation pressure ([1]; 383.15 K): 26.98 ± 0.4 kPa | vapor or sublimation pressure ([1]; 405.54 K): 53.33 ± 0.41 kPa | vapor or sublimation pressure ([1]; 429.34 K): 101.32 ± 0.5 kPa | refractive index [2]: 1.4657 ± 0.0003

Source: the NIST ThermoML archive (doi:10.1021/je025631i)
